Test results from article PMC10860121 (ACS infectious diseases, 2023).

System: not listed separately
Assay: In vitro intrinsic clearance in mouse liver microsomes
Type: in vitro ADME
Details: not given

| m CLint [μL/min/mg protein] | microsomal CLint [µL/min/mg] | SMILES |
| --- | --- | --- |
| 10 |  | O=C1CCc2cccnc2C(=O)Nc2ccccc21 [Compound 31, 5,6-Dihydro-7H-benzo[b]pyrido[3,2-g]azonine-7,13-(12H)-dione] |
|  | 160 | N#Cc1ccc2c(c1)CCC(=O)c1ccccc1NC2=O [Compound 33, 6,13-Dioxo-6,11,12,13-tetrahydro-5H-dibenzo[b,g]-azonine-9-carbonitrile] |
|  | 84 | O=C1Nc2ccccc2C(=O)CCc2cc(O)ccc21 [Compound 34, 9-Hydroxy-11,12-dihydro-5H-dibenzo[b,g]azonine-6,13-dione] |
|  | 60 | O=C1CCc2c(O)cccc2C(=O)Nc2ccccc21 [Compound 35, 10-Hydroxy-11,12-dihydro-5H-dibenzo[b,g]azonine-6,13-dione] |
|  | 43 | O=C1Nc2ccccc2C(=O)CCc2ccc(F)cc21 [Compound 36, 8-Fluoro-11,12-dihydro-5H-dibenzo[b,g]azonine-6,13-dione] |
|  | 36 | O=C1Nc2ccccc2C(=O)CCc2ccc(O)cc21 [Compound 37, 8-Hydroxy-11,12-dihydro-5H-dibenzo[b,g]azonine-6,13-dione] |

System: P. falciparum Dd2
Assay: In vitro antiplasmodial activity, Dd2, 72 h [3H]hypoxanthine incorporation
Type: cell-based
Details: Plasmodium falciparum, DD2, read-out: P. falciparum IC50 Dd2

| IC50 [nM] | SMILES |
| --- | --- |
| 6.1 ± 1.4 | C[C@H]1[C@H](OC(=O)CCC(=O)O)O[C@@H]2O[C@@]3(C)CC[C@H]4[C@H](C)CC[C@@H]1[C@@]24OO3 [Artesunate, artesunate] |

System: rat skeletal myoblast L6 cell line
Assay: Cytotoxicity, growth inhibition of L6 cells
Type: cell-based
Details: read-out: L6 IC50, mean from n ≥ 2

| SMILES | IC50 [nM] |
| --- | --- |
| O=C1CCOc2ccccc2C(=O)Nc2ccccc21 [Compound 7, 6,7-Dihydro-8H-dibenzo[b,f][1,5]oxazecine-8,14-(13H)-dione] | 31000 |
| O=C1CCc2cccnc2C(=O)Nc2ccccc21 [Compound 31, 5,6-Dihydro-7H-benzo[b]pyrido[3,2-g]azonine-7,13-(12H)-dione] | 190000 |

System: P. falciparum RF12
Assay: In vitro antiplasmodial activity, RF12, 72 h [3H]hypoxanthine incorporation
Type: cell-based
Details: Plasmodium falciparum, read-out: P. falciparum IC50 RF12

| IC50 [nM] | SMILES |
| --- | --- |
| 6.8 ± 1.4 | C[C@H]1[C@H](OC(=O)CCC(=O)O)O[C@@H]2O[C@@]3(C)CC[C@H]4[C@H](C)CC[C@@H]1[C@@]24OO3 [Artesunate, artesunate] |

System: not listed separately
Assay: In vitro intrinsic clearance in human liver microsomes
Type: in vitro ADME
Details: not given

| h CLint [μL/min/mg protein] | SMILES |
| --- | --- |
| 11 | O=C1CCc2cccnc2C(=O)Nc2ccccc21 [Compound 31, 5,6-Dihydro-7H-benzo[b]pyrido[3,2-g]azonine-7,13-(12H)-dione] |

Same assay, conditions: human, liver microsomes, h CLint

| microsomal CLint [µL/min/mg] | SMILES |
| --- | --- |
| < 7 | N#Cc1ccc2c(c1)CCC(=O)c1ccccc1NC2=O [Compound 33, 6,13-Dioxo-6,11,12,13-tetrahydro-5H-dibenzo[b,g]-azonine-9-carbonitrile] |
| 61 | O=C1Nc2ccccc2C(=O)CCc2cc(O)ccc21 [Compound 34, 9-Hydroxy-11,12-dihydro-5H-dibenzo[b,g]azonine-6,13-dione] |
| 16 | O=C1CCc2c(O)cccc2C(=O)Nc2ccccc21 [Compound 35, 10-Hydroxy-11,12-dihydro-5H-dibenzo[b,g]azonine-6,13-dione] |
| 13 | O=C1Nc2ccccc2C(=O)CCc2ccc(F)cc21 [Compound 36, 8-Fluoro-11,12-dihydro-5H-dibenzo[b,g]azonine-6,13-dione] |
| 7 | O=C1Nc2ccccc2C(=O)CCc2ccc(O)cc21 [Compound 37, 8-Hydroxy-11,12-dihydro-5H-dibenzo[b,g]azonine-6,13-dione] |

System: P. falciparum K1
Assay: In vitro antiplasmodial activity, K1, 72 h [3H]hypoxanthine incorporation
Type: cell-based
Details: Plasmodium falciparum, K1, read-out: P. falciparum IC50 K1

| IC50 [nM] | SMILES |
| --- | --- |
| 2.8 ± 0.64 | C[C@H]1[C@H](OC(=O)CCC(=O)O)O[C@@H]2O[C@@]3(C)CC[C@H]4[C@H](C)CC[C@@H]1[C@@]24OO3 [Artesunate, artesunate] |

System: not listed separately
Assay: Kinetic solubility at pH 6.5 by nephelometry
Type: physicochemical
Details: pH 6.5 phosphate buffer, 1% DMSO, solubility range by nephelometry

| Kinetic Sol6.5 [µg/mL] | SMILES |
| --- | --- |
| >100 | O=C1CCOc2ccccc2C(=O)Nc2ccccc21 [Compound 7, 6,7-Dihydro-8H-dibenzo[b,f][1,5]oxazecine-8,14-(13H)-dione] |
| >100 | O=C1CCc2cccnc2C(=O)Nc2ccccc21 [Compound 31, 5,6-Dihydro-7H-benzo[b]pyrido[3,2-g]azonine-7,13-(12H)-dione] |

System: Chloroquine-sensitive NF54 P. falciparum isolate
Assay: In vitro antiplasmodial activity, NF54
Type: cell-based, Plasmodium falciparum
Details: Plasmodium falciparum, NF54, read-out: P. falciparum IC50, NF54; mean from n ≥ 2

| IC50 [nM] | SMILES |
| --- | --- |
| 390 | N#Cc1ccc2c(c1)CCC(=O)c1ccccc1NC2=O [Compound 33, 6,13-Dioxo-6,11,12,13-tetrahydro-5H-dibenzo[b,g]-azonine-9-carbonitrile] |
| 15000 | O=C1Nc2ccccc2C(=O)CCc2cc(O)ccc21 [Compound 34, 9-Hydroxy-11,12-dihydro-5H-dibenzo[b,g]azonine-6,13-dione] |
| 5100 | O=C1CCc2c(O)cccc2C(=O)Nc2ccccc21 [Compound 35, 10-Hydroxy-11,12-dihydro-5H-dibenzo[b,g]azonine-6,13-dione] |
| 1300 | O=C1Nc2ccccc2C(=O)CCc2ccc(F)cc21 [Compound 36, 8-Fluoro-11,12-dihydro-5H-dibenzo[b,g]azonine-6,13-dione] |
| 1100 | O=C1Nc2ccccc2C(=O)CCc2ccc(O)cc21 [Compound 37, 8-Hydroxy-11,12-dihydro-5H-dibenzo[b,g]azonine-6,13-dione] |

Same assay, conditions: Plasmodium falciparum, NF54, read-out: P. falciparum IC50 NF54, Mean ± SD, n ≥ 2, 72 h [3H]hypoxanthine incorporation assay

| IC50 [nM] | SMILES |
| --- | --- |
| 6 ± 0.9 | C[C@H]1[C@H](OC(=O)CCC(=O)O)O[C@@H]2O[C@@]3(C)CC[C@H]4[C@H](C)CC[C@@H]1[C@@]24OO3 [Artesunate, artesunate] |

Same assay, conditions: read-out: P. falciparum IC50; NF54; mean from n ≥ 2

| IC50 [nM] | SMILES |
| --- | --- |
| 21000 | O=C1CCOc2ccccc2C(=O)Nc2ccccc21 [Compound 7, 6,7-Dihydro-8H-dibenzo[b,f][1,5]oxazecine-8,14-(13H)-dione] |
| 11000 | O=C1CCc2cccnc2C(=O)Nc2ccccc21 [Compound 31, 5,6-Dihydro-7H-benzo[b]pyrido[3,2-g]azonine-7,13-(12H)-dione] |

Same assay, conditions: relative to compound 2

| SMILES | fold less potent than 2 (antiplasmodial) [fold] |
| --- | --- |
| O=C1CCOc2ccccc2C(=O)Nc2ccccc21 [Compound 7, 6,7-Dihydro-8H-dibenzo[b,f][1,5]oxazecine-8,14-(13H)-dione] | > 100 |

System: P. falciparum TM90C2B
Assay: not given
Type: cell-based
Details: Plasmodium falciparum, read-out: P. falciparum IC50 TM90C2B

| IC50 [nM] | SMILES |
| --- | --- |
| 7.4 ± 1.3 | C[C@H]1[C@H](OC(=O)CCC(=O)O)O[C@@H]2O[C@@]3(C)CC[C@H]4[C@H](C)CC[C@@H]1[C@@]24OO3 [Artesunate, artesunate] |

System: not listed separately
Assay: Chromatographic LogD7.4
Type: physicochemical
Details: chromatographically determined, pH 7.4

| gLogD7.4 | SMILES |
| --- | --- |
| 2.0 | O=C1CCOc2ccccc2C(=O)Nc2ccccc21 [Compound 7, 6,7-Dihydro-8H-dibenzo[b,f][1,5]oxazecine-8,14-(13H)-dione] |
| 0.9 | O=C1CCc2cccnc2C(=O)Nc2ccccc21 [Compound 31, 5,6-Dihydro-7H-benzo[b]pyrido[3,2-g]azonine-7,13-(12H)-dione] |

Same assay, conditions: gradient HPLC, Phenomenex Synergi Hydro-RP column, pH 7.4

| chromatographic logD | SMILES |
| --- | --- |
| 2 | N#Cc1ccc2c(c1)CCC(=O)c1ccccc1NC2=O [Compound 33, 6,13-Dioxo-6,11,12,13-tetrahydro-5H-dibenzo[b,g]-azonine-9-carbonitrile] |
| 1.1 | O=C1Nc2ccccc2C(=O)CCc2cc(O)ccc21 [Compound 34, 9-Hydroxy-11,12-dihydro-5H-dibenzo[b,g]azonine-6,13-dione] |
| 1.3 | O=C1CCc2c(O)cccc2C(=O)Nc2ccccc21 [Compound 35, 10-Hydroxy-11,12-dihydro-5H-dibenzo[b,g]azonine-6,13-dione] |
| 2.1 | O=C1Nc2ccccc2C(=O)CCc2ccc(F)cc21 [Compound 36, 8-Fluoro-11,12-dihydro-5H-dibenzo[b,g]azonine-6,13-dione] |
| 1.2 | O=C1Nc2ccccc2C(=O)CCc2ccc(O)cc21 [Compound 37, 8-Hydroxy-11,12-dihydro-5H-dibenzo[b,g]azonine-6,13-dione] |
